Reference: patent US20150328220A1, “METHODS OF TREATING CHRONIC KIDNEY DISEASE CHARACTERIZED BY MACROALBUMINURIA” (Concert Pharmaceuticals, Inc., priority 2014, published 2015)

Legend:
Assay type in all cases: in vivo, human
[1] = test system: patients with type 2 diabetic kidney disease and macroalbuminuria; assay: Phase 2 placebo-controlled clinical trial, 48 weeks: serum creatinine levels; conditions: for patients who experienced a 50% or greater increase in serum creatinine levels: after 48 weeks
Protocol: (§1) A Phase 2 placebo-controlled clinical trial of Compound (V) was conducted in patients with type 2 diabetic kidney disease and macroalbuminuria. All patients enrolled in the clinical trial were concurrently treated with angiotensin modulators. The purpose of the trial was to compare Compound (V) to placebo in terms of safety and efficacy with respect to measures of renal function such as UACR, serum creatinine levels, and estimated glomerular filtration rate.
(§2) The clinical trial consists of three parts, two of which were completed and a third part that is on-going. Part 1 was a double-blind, parallel, two-arm, placebo-controlled study evaluating the safety and efficacy of 600 mg of Compound (V) twice daily for 24 weeks. 182 patients were enrolled in this first part of the trial and 151 patients completed Part 1. Part 2 was a blinded 24-week extension study in which all patients who completed Part 1 were eligible to continue receiving 600 mg of Compound (V) or placebo twice daily. 143 patients were enrolled in this part of the clinical trial and have completed dosing. 123 of the 143 patients that were enrolled in Part 2 of the clinical trial completed Part 2. The combined 48 weeks of data from Parts 1 and 2 of the clinical trial have been analyzed. 102 patients enrolled in Part 3 which is a 48 week open-label extension study that is on-going. All patients who completed Part 2 were eligible to receive 600 mg of Compound (V) twice daily.
The key criteria for patients to be included in the clinical trial were (a) eGFR from 23 to 89 mL/min/1.73 m^2, a measure of kidney function which indicates mild to moderately severe type 2 diabetic kidney disease; (b) having been on a stable angiotensin modulation regimen for a minimum of four weeks prior to initiating screening and nine weeks prior to initiating dosing; (c) blood pressure less than or equal to 145/90 mm Hg; (d) glycosylated hemoglobin A1c (HbA1c) less than or equal to 10.5%, and (e) UACR greater than or equal to 200 mg/g in male patients and 300 mg/g in female patients, ratios of albumin to creatinine that are indicative of substantial kidney damage in men and women, but not more than 5,000 mg/g, a ratio indicative of severe kidney disease.

urinary fibronectin = assay: Phase 2 placebo-controlled clinical trial, 48 weeks: urinary fibronectin (fibrotic biomarker)
Protocol: as §1
as §2, with “All patients who completed Part 2 were eligible to receive 600 mg of Compound (V) twice daily.” left out

plasma collagen IV = assay: Phase 2 placebo-controlled clinical trial, 48 weeks: plasma collagen IV (fibrotic biomarker); conditions: week 48 (FIG. 3)
Protocol: as §1
as §2, with “All patients who completed Part 2 were eligible to receive 600 mg of Compound (V) twice daily.” left out

[2H]C([2H])([2H])[C@H](O)C([2H])([2H])CCCn1c(=O)c2c(ncn2C)n(C)c1=O [Compound (V)]
increase in mean serum creatinine level over the 48 weeks of treatment ([1]; 600 mg twice daily, 48 weeks, 65 patients, overall population, preliminary analysis): 0.13 mg/dL | patients who experienced a 50% or greater increase in serum creatinine levels ([1]; overall population, one out of 65 patients, p=0.026 vs placebo, post-hoc): 1.5% | patients who experienced a 50% or greater increase in serum creatinine levels ([1]; subpopulation having UACR greater than 850 mg/g, one out of 31 patients, p<0.0409 vs placebo): 3.1% | improvement in serum creatinine increase as compared to placebo ([1]; at 48 weeks, 600 mg twice daily, p=0.057 two-tailed): 38% | less urine fibronectin versus placebo (urinary fibronectin; week 48, overall population (FIG. 1)): 59% | decrease in urine fibronectin relative to placebo (urinary fibronectin; week 48, subpopulation having UACR greater than 850 mg/g, p<0.01 (FIG. 2)): 73% | less plasma collagen IV versus placebo (plasma collagen IV): 18%
